In US20200338028A1, “BENZENESULFONAMIDE DERIVATIVES AND METHOD FOR MODULATING LIPID RAFT” (Gongwin Biopharm Co., Ltd., priority 2017, published 2020):

Assays:
PC-3 cells [1] = experiment: CFSE staining, flow cytometric proliferation index; type: cell-based, human; conditions: PC-3, 48 h
Method: (§1) The anti-proliferative effect was further examined by CFSE staining. CFSE is a fluorescent cell staining dye for cell-tracking, and it was conjugated to intracellular proteins and was evenly inherited by divided cells after cell proliferation. Consequently, the fluorescence-staining was distributed to later generations of cells with the passage of time. The process for CFSE staining was performed as follows. CFSE was dissolved in DMSO to constitute a storage solution of 10 mM and was kept at −20° C. until use. The PC-3 and DU-145 cells were adjusted to a density of 10^6 cells/ml and were treated with CFSE at a final concentration of 10 μM in tubes. After incubation at 37° C. for 10 min, labeling was blocked by the addition of RPMI medium with 10% FBS. The tubes were placed on ice for 5 min and then washed. After centrifugation of the tubes, the cells were seeded in RPMI medium with 10% FCS in the absence or presence of p-TSA for 48 h at 37° C. under 5% CO2/95% air condition. The fluorescence intensity was determined by flow cytometric analysis. The cell proliferation was assessed by monitoring the decrease in label intensity in daughter cells. The proliferation index and the cell populations of parent or different generations were calculated by using Modfit LT Version 3.2 and WinList Version 5.0 software.

DU-145 cells = experiment: CFSE staining, flow cytometric proliferation index; type: cell-based, human; conditions: DU-145, 48 h
Method: as §1

PC-3 cells [2] = experiment: colony formation (clonogenic) assay; type: cell-based, human; conditions: for IC50: Homo sapiens, PC-3, 240 h, 10 days, FIG. 4F, read-out: IC50, growth inhibition, colony formation assay
Method: To assay the anchorage-dependent clonogenic effect, each individual PC-3 and DU-145 cells (150 cells/well) were seeded in a 6-well plate. After a 10-day treatment with p-TSA, the cell colonies were rinsed with phosphate-buffered saline (PBS), stained with 0.4% (w/v) crystal violet dissolved in 20% methanol, and lysed by 50 mM sodium citrate dissolved in 50% ethanol. The absorbance was read at a wavelength of 595 nm.
To further substantiate the role of Akt, the Myr-Akt overexpressed PC-3 cells were prepared with the method shown as follows. The plasmid encoding Myr-Akt, an N-terminally myristoylation signal-attached Akt, was a gift from Professor Mien-Chie Hung (The University of Texas, M.D. Anderson Cancer Center). For transfection, PC-3 cells were seeded into 60-mm tissue culture dishes with 30% confluence and grown for 24 h to 50-60% confluence. Each dish was washed with serum-free Opti-MEM (Life Technologies), and 2 ml of the serum-free Opti-MEM was then added. Aliquots containing Myr-Akt expression vector or a control plasmid in serum-free Opti-MEM were transfected into cells using Lipofectamine 2000 (Invitrogen) following the manufacturer's instructions. After incubation for 6 h at 37° C., cells were washed with serum-free Opti-MEM and incubated in 10% FBS-containing RPMI-1640 medium for 48 h. The cells were treated with or without p-TSA and then the related analyses were performed. […] Furthermore, the functional rescue of Myr-Akt was determined. […] However, overexpression of Myr-Akt had minimal effect on p-TSA-induced cyclin D1 down-regulation.

PC-3 cells [3] = experiment: SRB assay, anti-proliferative effect; type: cell-based; conditions: Homo sapiens
Method: Two castration-resistant prostate cancer (CRPC) cell lines of PC-3 and DU-145 were cultured in RPMI 1640 medium with 5% FBS (v/v), penicillin (100 units/ml) and streptomycin (100 μg/ml). Cultures were maintained in a 37° C. incubator with 5% CO2, and adherent cultures were passaged using 0.05% trypsin-EDTA when they reached about 80% confluence. Prostate cells were from human tissue samples which were obtained following informed consent of the donors and after full review by the Ethics Review Committee at National Taiwan University Hospital. The prostate specimens were from males by transurethral resection of the prostate. All patients with prostatism histories were diagnosed to have benign prostate hyperplasia by rectal digital examination, transrectal sonography of prostate and urodynamic studies. Isolation of human prostatic cells from prostatic tissue explants was described in the previous study. The prostate cells were with less amount lipid rafts compared to prostate cancer cells.
SRB assay, colonogenic assay, and carboxyfluorescein succinimidyl ester (CFSE) staining were used for anti-proliferative determination. SRB assay is an accurate and reproducible assay based upon quantitative SRB staining of cellular proteins, and the process for SRB assay was performed as follows. Each individual PC-3 and DU-145 cells were seeded in 96-well plates in medium with 10% FBS. After 24 h, PC-3 and DU-145 cells were fixed with 10% TCA to represent cell population at the time of p-TSA addition. […] The absorbance of SRB was measured at a wavelength of 515 nm at the time of p-TSA addition (hereinafter referred to as time zero, TZ), and after additional incubation of DMSO (hereinafter referred to as control growth, CTL) or p-TSA (hereinafter referred to as Tx). The percentage of cell growth inhibition was calculated by the formula of [1−(Tx−TZ)/(CTL−TZ)]×100%. […]
To further substantiate the role of Akt, the Myr-Akt overexpressed PC-3 cells were prepared with the method shown as follows. […] Furthermore, the functional rescue of Myr-Akt was determined. […]

IC50 (PC-3 cells [2]; PC-3 overexpressing constitutively active Myr-Akt): 680 ± 20 µM | IC50 (PC-3 cells [2]; PC-3 without Myr-Akt overexpression): 580 ± 20 µM | IC50 (PC-3 cells [3]; PC-3, 48 h, PC-3 overexpressing constitutively active Myr-Akt, 48 hours, FIG. 4E, read-out: IC50, growth inhibition, SRB assay): 2180 ± 100 µM | IC50 (PC-3 cells [3]; PC-3, 48 h, PC-3 without Myr-Akt overexpression, 48 hours, FIG. 4E, read-out: IC50, growth inhibition, SRB assay): 1970 ± 10 µM | IC50 (PC-3 cells [3]; PC-3, PC-3, SRB assay, FIG. 1A, read-out: IC50, inhibition of cell growth): ~3000 µM
SMILES: Cc1ccc(S(N)(=O)=O)cc1 [p-TSA, para-toluenesulfonamide]
proliferation index based on CFSE staining (PC-3 cells [1]): concentration-dependent inhibition | proliferation index based on CFSE staining (DU-145 cells): concentration-dependent inhibition | anti-proliferative effect, clonogenic assay (PC-3 cells [2]; PC-3, 10 days, FIG. 1B): long-term anti-proliferative effect
